Patent US4622342A, “Secondary amines” (priority 1981, dated 1986)
Structures can show the parent of a compound that is named as a salt. Where two headings read alike, the source gives them in different places.

How the values were obtained:
blood glucose = assay: Anti-hyperglycaemic activity (blood glucose after subcutaneous glucose in fasted mice); type: in vivo, Female CFLP mice; settings: Mus musculus, read-out: Reduction in area under blood glucose curve
Procedure: Female CFLP mice, each weighing approximately 25 g were fasted for 24 hours prior to the study. The compounds under study were administered orally as an aqueous solution to each of 6 mice. 6 mice were given water as a control. 30 minutes later a blood sample (20 μl ) was obtained from the tail for the analysis of blood glucose. Immediately after taking this blood sample, glucose (1 g/kg body weight) was administered subcutaneously to each mouse. Blood samples were then obtained from each mouse at 30 minute intervals for 120 minutes.
Compounds that produced a significant (P<0.05) reduction of blood glucose, compared with control mice given water, at any time interval, were considered active. The area under the blood glucose curve over the 2 hour period after the adminstration of the glucose was calculated for each compound and compared with the value for control animals.

platelet aggregation = assay: Platelet aggregation inhibition activity (collagen-induced fall in platelet count, oral dosing); type: in vivo, Male CFLP mice; settings: collagen 400 μg/kg i.v. two hours later
Procedure: Male CFLP mice (ca 20 g, n=8) were dosed orally with compound or vehicle (controls) after an overnight fast. Two hours later each mouse received an intravenous dose of collagen (400 μg/kg, pH 6-6.6). Exactly 30 seconds after injection of collagen, each mouse was placed in a chamber of CO2 until respiration ceased. […] Each blood platelet count was expressed as a percent of that obtained in a tail blood sample taken immediately before injection of collagen.

Rat hearts = assay: Cardiac activity, rat hearts perfused by the Langendorff procedure
Procedure: Rat hearts were perfused by the Langendorff procedure as follows:
Hearts were dissected free within 30 seconds of death and reverse perfused via the aorta and coronary vessels with Krebs-Ringer bicarbonate solution (pH 7.4, 37° C.) gassed with 95% oxygen:5% carbon dioxide at a flow rate between 8-12 cm^3 /minute. Responses were observed after injection of drug dissolved in isotonic saline into the perfusion media.
Results are expressed as a percentage of the maximum response due to salbutamol.

rat ear inflammation = assay: Topical anti-inflammatory activity (croton oil rat ear inflammation); type: in vivo; settings: 1.0 mg/rat ear; 6 hours; activity = significant (5% level) reduction in ear weight vs non-drug treated control
Procedure: The method used is based on that described by G. Tonelli et al (Endocrinology, 77, 625-634, 1965). An inflammation is induced in the rat ear by the application of 50 μl of a 1% solution of croton oil in tetrahydrofuran, test compounds being dissolved in the irritant vehicle. After 6 hours the inflammation is assessed by killing the animals and weighing the ears. Topical anti-inflammatory activity of a compound is generally considered to be shown when a significant (5% level) reduction in ear weight is seem compared to non-drug treated control.

[1] = dose 1 μ moles/kg po, 2 hour period after glucose 1 g/kg s.c.
[2] = 10 μg added to perfusate (salbutamol dose not given), read-out: Heart Rate (percentage of the maximum response due to salbutamol)
[3] = 10 μg added to perfusate (salbutamol dose not given), read-out: Heart Tension (percentage of the maximum response due to salbutamol)
[4] = read-out: Heart Rate (percentage of the maximum response due to salbutamol)
[5] = read-out: Heart Tension (percentage of the maximum response due to salbutamol)

COc1ccc(C[C@@H](C)NC[C@H](O)c2cccc(Cl)c2)cc1F (relative stereo) [Example 4, N-[2-(3-Fluoro-4-methoxyphenyl)-1-methylethyl]-2-hydroxy-2-(3-chlorophenyl)ethanamine hydrobromide-(RR,SS) diastereoisomer]
inhibition in vivo at 1 µmol/kg (blood glucose; po, 2 h): 42%

COc1ccc(C[C@@H](C)NC[C@H](O)c2cccc(Cl)c2)cc1 (relative stereo) [Example 6, N-[2-(4-Methoxyphenyl)-1-methylethyl]-2-hydroxy-2-(3-chlorophenyl)ethanamine hydrobromide-(RR,SS) diastereoisomer]
inhibition in vivo at 0.5 µmol/kg (blood glucose; po, 2 h): 30%
inhibition in vivo at 1 µmol/kg (blood glucose; po, 2 h): 40%

COc1ccc(C[C@H](C)NC[C@H](O)c2cccc(Cl)c2)cc1F (relative stereo) [Example 15, N-[2-(3-Fluoro-4-methoxyphenyl)-1-methylethyl]-2-hydroxy-2-(3-chlorophenyl)ethanamine-(RS,SR) diastereoisomer]
inhibition in vivo at 1 µmol/kg (blood glucose; po, 2 h): 19%

COc1ccc(C[C@H](C)NC[C@H](O)c2cccc(Cl)c2)cc1OC (relative stereo) [Example 20, N-[2-(3,4-Dimethoxyphenyl)-1-methylethyl]-2-hydroxy-2-(3-chlorophenyl)ethanamine-(RS,SR) diastereoisomer]
inhibition in vivo at 2.5 µmol/kg (blood glucose; po, 2 h): 34%

CC(=O)Oc1ccccc1C(=O)O [Aspirin, reference compound]
% INHIBITION OF RESPONSE TO COLLAGEN (platelet aggregation; dose 600 μmol/kg po): 33%

CC(Cc1ccc(OCc2ccccc2)cc1)NCC(O)c1cccc(Cl)c1 (stereo not shown) [Example 1, N-[2-(4-Benzyloxyphenyl)-1-methylethyl]-2-hydroxy-2-(3-chlorophenyl)ethanamine]
inhibition in vivo at 1 µmol/kg (blood glucose; [1]): 36%
Emax (Rat hearts; [2]): 0%
Emax (Rat hearts; [3]): 7%

CC(Cc1ccc(O)cc1)NCC(O)c1cccc(Cl)c1 (stereo not shown) [Example 2, N-[2-(4-Hydroxyphenyl)-1-methylethyl]-2-hydroxy-2-(3-chlorophenyl)ethanamine]
% INHIBITION OF RESPONSE TO COLLAGEN (platelet aggregation; dose 5 μmol/kg po): 40%
inhibition in vivo at 1 µmol/kg (blood glucose; po, 2 h): 47%
Emax (Rat hearts; [4]): 14%
Emax (Rat hearts; [5]): 26%

COc1ccc(CC(C)NCC(O)c2cccc(Cl)c2)cc1F (stereo not shown) [Example 3, N-[2-(3-Fluoro-4-methoxyphenyl)-1-methylethyl]-2-hydroxy-2-(3-chlorophenyl)ethanamine]
inhibition in vivo at 1 µmol/kg (blood glucose; po, 2 h): 46%
Emax (Rat hearts; [4]): 0%
Emax (Rat hearts; [5]): 36%

COc1ccc(CC(C)NCC(O)c2cccc(Cl)c2)cc1 (stereo not shown) [Example 5, N-[2-(4-Methoxyphenyl)-1-methylethyl]-2-hydroxy-2-(3-chlorophenyl)ethanamine]
inhibition in vivo at 1 µmol/kg (blood glucose; po, 2 h): 49%
Topical anti-inflammatory ACTIVITY (rat ear inflammation): Active

COc1ccc(CC(C)NCC(O)c2cccc(F)c2)cc1 (stereo not shown) [Example 7, N-[2-(4-Methoxyphenyl)-1-methylethyl]-2-hydroxy-2-(3-fluorophenyl)ethanamine]
inhibition in vivo at 5 µmol/kg (blood glucose; po, 2 h): 32%

COc1ccc(CC(C)NCC(O)c2cccc(Br)c2)cc1 (stereo not shown) [Example 8, N-[2-(4-Methoxyphenyl)-1-methylethyl]-2-hydroxy-2-(3-bromophenyl)ethanamine]
inhibition in vivo at 1 µmol/kg (blood glucose; po, 2 h): 30%

COc1ccc(CC(C)NCC(O)c2cccc(Cl)c2F)cc1 (stereo not shown) [Example 9, N-[2-(4-Methoxyphenyl)-1-methylethyl]-2-hydroxy-2-(3-chloro-2-fluorophenyl)ethanamine]
inhibition in vivo at 1 µmol/kg (blood glucose; po, 2 h): 40%

CC(CCc1ccc(O)cc1)NCC(O)c1cccc(Cl)c1 (stereo not shown) [Example 10, N-[3-(4-Hydroxyphenyl)-1-methylpropyl]-2-hydroxy-2-(3-chlorophenyl)ethanamine]
% INHIBITION OF RESPONSE TO COLLAGEN (platelet aggregation; dose 5 μmol/kg po): 40%
inhibition in vivo at 1 µmol/kg (blood glucose; [1]): 47%

CC(Cc1ccc(OC(C)C)cc1)NCC(O)c1cccc(Cl)c1 (stereo not shown) [Example 11, N-[2-(4-Isopropoxyphenyl)-1-methylethyl]-2-hydroxy-2-(3-chlorophenyl)ethanamine]
inhibition in vivo at 0.2 µmol/kg (blood glucose; po, 2 h): 12.5%

CCCCCOc1ccc(CC(C)NCC(O)c2cccc(Cl)c2)cc1 (stereo not shown) [Example 12, N-[2-(4-^n Pentyloxyphenyl)-1-methylethyl]-2-hydroxy-2-(3-chlorophenyl)ethanamine]
inhibition in vivo at 0.5 µmol/kg (blood glucose; po, 2 h): 36%

CCCCCCCCCCOc1ccc(CC(C)NCC(O)c2cccc(Cl)c2)cc1 (stereo not shown) [Example 13, N-[2-(4-^n Decyloxyphenyl)-1-methylethyl]-2-hydroxy-2-(3-chlorophenyl)ethanamine]
inhibition in vivo at 1 µmol/kg (blood glucose; [1]): 22%

COc1ccc(CCNCC(O)c2cccc(Cl)c2)cc1 (stereo not shown) [Example 14, N-[2-(4-Methoxyphenyl)ethyl]-2-hydroxy-2-(3-chlorophenyl)ethanamine]
inhibition in vivo at 1 µmol/kg (blood glucose; [1]): 39%

COc1ccc(CCC(C)(C)NCC(O)c2cccc(Cl)c2)cc1 (stereo not shown) [Example 16, N-[3-(4-Methoxyphenyl)-1,1-dimethylpropyl]-2-hydroxy-2-(3-chlorophenyl)ethanamine]
inhibition in vivo at 50 µmol/kg (blood glucose; dose 50 μ moles/kg po, 2 hour period after glucose 1 g/kg s.c.): 21%

COc1ccc(C[C@@H](C)NCC(O)c2cccc(Cl)c2)cc1F (stereo partly drawn) [Example 17, N-[2-(3-Fluoro-4-methoxyphenyl)-1-(R)-1-methylethyl]-2-(R,S)-2-hydroxy-2-(3-chlorophenyl)ethanamine hydrobromide]
inhibition in vivo at 2.5 µmol/kg (blood glucose; po, 2 h): 38%

COc1ccc(CC(C)NCC(O)c2cccc(Cl)c2)cc1C (stereo not shown) [Example 18, N-[2-(4-methoxy-3-methylphenyl)-1-methylethyl]-2-hydroxy-2-(3-chlorophenyl)ethanamine]
inhibition in vivo at 2.5 µmol/kg (blood glucose; po, 2 h): 58%

COc1ccc(CC(C)NCC(O)c2cccc(Cl)c2)cc1OC (stereo not shown) [Example 19, N-[2-(3,4-Dimethoxyphenyl)-1-methylethyl]-2-hydroxy-2-(3-chlorophenyl)ethanamine]
inhibition in vivo at 2.5 µmol/kg (blood glucose; po, 2 h): 21%

CC(Cc1ccc(OC2CCCCC2)cc1)NCC(O)c1cccc(Cl)c1 (stereo not shown) [Example 21, N-[2-(4-Cyclohexyloxyphenyl)-1-methylethyl]-2-hydroxy-2-[3-chlorophenyl)ethanamine hydrochloride]
inhibition in vivo at 2.5 µmol/kg (blood glucose; po, 2 h): 53%

CC(Cc1ccc(OCCc2ccccc2)cc1)NCC(O)c1cccc(Cl)c1 (stereo not shown) [Example 22, N-[2-(4-{2-phenylethoxy}phenyl)-1-methylethyl]-2-hydroxy-2-(3-chlorophenyl)ethanamine]
inhibition in vivo at 2.5 µmol/kg (blood glucose; dose 2.5 μ moles/kg po, 2 hour period after glucose 1 g/kg s.c.): 13%

COc1cccc(CC(C)NCC(O)c2cccc(Cl)c2)c1 (stereo not shown) [Example 23, N-[2-(3-Methoxyphenyl)-1-methylethyl]-2-hydroxy-2-(3-chlorophenyl)ethanamine hydrochloride]
inhibition in vivo at 2.5 µmol/kg (blood glucose; po, 2 h): 22%

COc1ccccc1CC(C)NCC(O)c1cccc(Cl)c1 (stereo not shown) [Example 24, N-[2-(2-Methoxyphenyl)-1-methylethyl]-2-hydroxy-2-(3-chlorophenyl)ethanamine]
inhibition in vivo at 5 µmol/kg (blood glucose; po, 2 h): 27%

CC(C)(C)NCC(O)c1ccc(O)c(CO)c1 (stereo not shown) [Salbutamol, salbutamol, reference compound]
Emax (Rat hearts; [2]): 100%
Emax (Rat hearts; [3]): 100%
